Experimental data from patent US20250127168A1, “METHOD FOR PATHOGENS, MICROORGANISMS, AND PARASITES INACTIVATION” (New York Blood Center, Inc., priority 2018, published 2025).

Assays:
[1] = Neutralization of compound VI by sodium thiosulfate (LCMS); type: physicochemical; details: for first-order rate constant of reaction with Na2S2O3: Compound VI 100 μM, 1 mM Na2S2O3 in PBS
Description: The rate of reaction of Compound VI, 100 μM with 1 mM Na2S2O3 in PBS was determined by LCMS analysis of the reaction mixture (FIG. 19). […] LCMS analysis of the reaction product confirmed that it was the bisthiosulfate ester (compound XXIII formed by reacting of compound VI with two molecules of Na2S2O3.

[2] = target: T1, RSV's fusion (F) protein (Human respiratory syncytial virus A, UniProt P03420); assay: Anti-F antibody binding to treated RSV (ELISA); details: 100 μM, 4 hours at 40° C.
T1 construct: Sucrose gradient-purified RSV was treated with compound VI and compound X; host or cells: sucrose gradient-purified RSV virions
Description: Controls included mock-treated RSV incubated for 4 hours at 40° C. and non-treated virus kept at 4°° C. ELISA assay was performed according procedure described by Schmidt et al, J Virol. […] Eight serial 1:2 dilutions in PBS were plated (50 µl/well) in triplicates into 96-well plates, and incubated overnight at 4° C. The wells were washed with PBS and blocked with PBS/1% BSA. Anti-protein F antibody was added, and the mixture was incubated for 2 h, followed by washings and the addition of anti-mouse IgG HRP conjugate. After another round of washing, TMB substrate and sulfuric acid were added and readings were conducted using ELISA Reader SPECTRAmax PLUS (Molecular Devices,

[3] = test system: porcine parvovirus (PPV); assay: Viral inactivation in RS, endpoint dilution assay; type: cell-based; details: 100 μM, RT
Description: (§1) The porcine parvovirus (PPV) was inactivated by using compound VI and compound X. Treatments were conducted in RS (pH 6.9) at RT with 100 μM using compound VI and compound X and 10% virus spike. Residual compounds were quenched by incubation with 10 mM Na2S2O3 for 2 hours at RT. Virus titers, expressed as Log10TCID50/mL, were determined using the standard endpoint dilution assay with permissive to PPV porcine testis cells. After the incubation of indicator cells for 6 days, infected wells were counted under microscope by visual inspection. To confirm the results, secondary infection using conditioned media from the first plate wells as samples was conducted.

[4] = test system: Bovine viral diarrhea virus (BVDV); assay: Viral inactivation in RS, endpoint dilution assay; type: cell-based; details: 100 μM, RT
Description: as §1
Bovine viral diarrhea virus (BVDV) was inactivated by using compound VI and compound X. The protocol used for […] except the indicator cells, which were bovine turbinate cells.

[5] = test system: Human respiratory syncytial virus (RSV); assay: Viral inactivation, modified plaque assay; type: cell-based; details: 100 μM, RT
Description: Human respiratory syncytial virus (RSV) was inactivated by using Compound VI or Compound X. For that purpose, sucrose gradient-purified virus was treated with 100 μM of Compound VI and Compound X at RT. […] The virus titers were determined using standard 10× serial dilutions in a modified plaque assay. For mock-treated virus no significant changes in RSV infectivity were found even after 6 h incubation at RT (in different experiments, the reduction of titers were in the range of 0.11-0.36 Login PFU/mL).
Inactivation of RSV with different concentrations of Compound XVI at RT and 40° C. was performed as described in Example 9.

[6] = Neutralization of compound X by ethyl 2-mercaptoacetate (LCMS); type: physicochemical; details: PBS, RT; for Peak Areas (LCMS): 100 μM X + 10 mM ethyl 2-mercaptoacetate
Description: 100 μM solution of compound X in phosphate buffered saline was incubated at room temperature with 10 mM of ethyl-2-mercaptoacetate, and the change of the concentration of compound X, as well as the formation of the intermediate compound of neutralization (XXI) and the final compound of neutralization XXII was determined by LCMS analysis of the mixture. The reaction scheme of neutralization is presented below. The peak areas of compound X, intermediate neutralization product, Q1 (compound XXI) and final neutralization product, Q2 (compound XXII) are presented in the Table 8 below, and in FIG. 18.

[7] = Binding of compound X to sulfonic cation exchange resin (Purolite NRW160, Na+ form) through ion pairs; type: physicochemical; details: 50 mg dry beads in one mL of 100 μM solution in PBS
Description: Purolite NRW160 polystyrene divinylbenzene cross-linked resin functionalized with sulfonic groups in the H^+ form, 500 g was transferred into the Na^+ form by the following steps: The beads were washed on a vacuum filter and under a sterile hood with 3 volumes of saturated NaCl solution, followed by two volume of 1 M NaOH. After NaOH sterilization beads were washed by sterile deionized water until the pH of the rinsings became neutral. The beads were incubated with two volumes of methanol for 15 min and after removing of methanol were rinsed again with three volumes of sterile deionized water. After final incubation in methanol (2 volumes) the alcohol was removed by filtration and beads were dried under the vacuum.
Dry beads, 50 mg were added to one mL of 100 μM solution of compound X in phosphate buffered saline.

[8] = Neutralization of compound X with thiophenol (LCMS); details: for ratio of the peak areas of compounds X, XXVI and XXVII: 100 μM X, 10 mM thiophenol, PBS
Description: In the right panel are shown the mass spectra of the corresponding peaks.

[9] = row 1 h, footnote c: time points were 2, 4, and 6 h (2 h)
[10] = row 3 h, footnote c: time points were 2, 4, and 6 h (4 h)

T1 sequence (P03420 137-574): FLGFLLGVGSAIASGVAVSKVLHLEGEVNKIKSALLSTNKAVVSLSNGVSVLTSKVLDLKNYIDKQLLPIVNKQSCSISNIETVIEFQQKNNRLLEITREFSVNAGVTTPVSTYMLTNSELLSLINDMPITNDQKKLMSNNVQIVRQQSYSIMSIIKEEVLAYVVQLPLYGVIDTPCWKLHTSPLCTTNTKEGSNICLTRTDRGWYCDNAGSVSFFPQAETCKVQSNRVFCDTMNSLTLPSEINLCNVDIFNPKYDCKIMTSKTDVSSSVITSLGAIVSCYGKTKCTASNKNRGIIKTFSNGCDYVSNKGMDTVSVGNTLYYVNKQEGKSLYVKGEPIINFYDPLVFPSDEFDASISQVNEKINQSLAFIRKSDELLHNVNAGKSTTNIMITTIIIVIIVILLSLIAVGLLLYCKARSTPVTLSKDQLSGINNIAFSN
T1 sequence (P03420 26-109): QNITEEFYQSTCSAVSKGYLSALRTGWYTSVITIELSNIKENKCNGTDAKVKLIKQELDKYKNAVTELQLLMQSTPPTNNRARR

## CN(CCCCN(C)CCCN1CC1)CCCN1CC1 [Compound VI, N^1,N^4-bis(3-(aziridin-1-yl)propyl)-N^1,N^4-dimethylbutane-1,4-diamine]
[1]; 10 mM Na2S2O3, 25° C., after 2 h, extrapolated
  residual compound VI concentration: 5.5e-07 pM
[1]; 6° C.
  first-order rate constant of reaction with Na2S2O3: 0.00614 min⁻¹
[1]; 25° C.
  first-order rate constant of reaction with Na2S2O3: 0.0379 min⁻¹
[1]; in 10 mM Na2S2O3 and 25° C., extrapolated from rate
  half-live of compound VI: 1.83 min
[2]
  recognition of the F protein by monoclonal antibody after treatment: did not change the degree of recognition of the F protein
[3]; RS pH 6.9, incubation 1 h
  PPV titer: 2.95 Log10TCID50/mL
[3]; RS pH 6.9, incubation 3 h
  PPV titer: 0.85 Log10TCID50/mL
[3]; RS pH 6.9, incubation 6 h
  PPV titer: below the limit of detection and BLD
[4]; incubation 1 h
  BVDV titer: 3.27 Log10TCID50/mL
[4]; incubation 3 h
  BVDV titer: 1.30 Log10TCID50/mL
[4]; incubation 6 h
  BVDV titer: below the limit of detection and BLD
[5]; incubation 6 h
  RSV titer: below the limit of detection and BLD
[5]; [9]
  RSV titer: 4.52 Log10PFU/mL
[5]; [10]
  RSV titer: 1.89 Log10PFU/mL

## CN(CCCCN(C)CCCN1CC1)CCCN(C)CCCN1CC1 [Compound X]
[6]; 10 mM ethyl 2-mercaptoacetate
  first order rate constant of concentration decrease: 0.022 min⁻¹
[6]; Time 6 min
  Peak Areas (LCMS): 161.9
[6]; Time 14.5 min
  Peak Areas (LCMS): 128.8
[6]; Time 23.1 min
  Peak Areas (LCMS): 123.1
[6]; Time 31.6 min
  Peak Areas (LCMS): 96.3
[6]; Time 40.2 min
  Peak Areas (LCMS): 85
[6]; Time 48.7 min
  Peak Areas (LCMS): 76.9
[6]; Time 57.3 min
  Peak Areas (LCMS): 52.9
[6]; Time 65.8 min
  Peak Areas (LCMS): 42.7
[6]; Time 74.3 min
  Peak Areas (LCMS): 33.1
[6]; Time 82.9 min
  Peak Areas (LCMS): 26
[6]; Time 91.4 min
  Peak Areas (LCMS): 23.2
[6]; Time 100.0 min
  Peak Areas (LCMS): 17.4
[6]; Time 108.5 min
  Peak Areas (LCMS): 14
[6]; Time 117.1 min
  Peak Areas (LCMS): 11.5
[6]; Time 125.6 min
  Peak Areas (LCMS): 7.6
[7]
  concentration of compound X in the supernatant: below 30 nM
[2]
  recognition of the F protein by monoclonal antibody after treatment: did not change the degree of recognition of the F protein
[3]; RS pH 6.9, incubation 1 h
  PPV titer: 3.09 Log10TCID50/mL
[3]; RS pH 6.9, incubation 3 h
  PPV titer: 2.72 Log10TCID50/mL
[3]; RS pH 6.9, incubation 6 h
  PPV titer: 0.78 Log10TCID50/mL
[4]; incubation 1 h
  BVDV titer: 3.88 Log10TCID50/mL
[4]; incubation 3 h
  BVDV titer: 2.94 Log10TCID50/mL
[4]; incubation 6 h
  BVDV titer: 0.84 Log10TCID50/mL
[5]; incubation 6 h
  RSV titer: 1.95 Log10PFU/mL
[5]; [9]
  RSV titer: 4.95 Log10PFU/mL
[5]; [10]
  RSV titer: 3.48 Log10PFU/mL
[8]; after 1 min and 40 sec (100 sec)
  ratio of the peak areas of compounds X, XXVI and XXVII: 21
[8]; after 10 min
  ratio of the peak areas of compounds X, XXVI and XXVII: 3
[8]; after 20 min
  ratio of the peak areas of compounds X, XXVI and XXVII: 0.5
[8]; in presence of 10 mM of thiophenol
  half-life of compound X: below 1 min
